The numbers were not newly measured in paper PMC10182713 (South African Journal of Botany, 2023), which cites them from elsewhere.

The structures appear in SMILES notation.

The subject of the data set is multidrug-resistant TB. The conditions noted are these: ref Favela-Hernández et al. (2012); cited from earlier work.

Take `COc1cc(-c2oc3c(OC)c(OC)cc(O)c3c(=O)c2OC)ccc1O` [5,4-dihydroxy-3,7,8,3-tetramethoxyflavone]: the “Activity against multidrug-resistant TB in words” value is on record as “active”. For the molecule `COc1cc(O)c2c(=O)c(OC)c(-c3ccc(O)cc3)oc2c1OC` [5,4-dihydroxy 3,7,8-trimethoxyflavone], the “Activity against multidrug-resistant TB in words” value is reported as “active”.
